“Also recorded” adds a separate entry of the source.
Assays:
CD4^+ ATH8 cells = assay: Toxicity on ATH8 target cells (% toxicity, dye exclusion); assay type: cell-based; settings: human
Protocol: (§1) HIV Cytopathic Effect Inhibition Assay.
(§2) The HIV cytopathic effect inhibition assay was performed as previously described. […] On day 8 in culture, the viable cells were counted by using the dye exclusion method. All compounds, including inactives, were evaluated a minimum of two times in separate experiments. Data reported in Table II are from representative tests. The % protection against the virus was determined by the following formula: 100 times [(the number of viable cells exposed to HIV-1 and cultured in the presence of the compound minus the number of viable cells exposed to HIV-1 and cultured in the absence of compound) divided by (the number of viable cells cultured alone minus the number of viable cells exposed to HIV-1 and cultured in the absence of the compound)]. The % toxicity of a compound on the target cells was determined by the following formula: 100 times [1 minus (the number of total viable cells cultured in the presence of the compound divided by the number of total viable cells cultured alone)]. Calculated percentages equal to or less than zero are expressed as 0%.

[1] = as above; assay type: cell-based; settings: human, ath8 cells, % Toxicity
Protocol: as §1, §2

HIV = settings: cited from earlier work
[2] = test system: HIV-1/IIIB (CD4^+ ATH8 cells); assay: HIV cytopathic effect inhibition assay in ATH8 cells (% protection); assay type: cell-based; settings: for inhibition at 10 µM: Human immunodeficiency virus 1, IIIB, ATH-8, 192 h
Protocol: as §1
The HIV cytopathic effect inhibition assay was performed as previously described. (Mitsuya, H. & Broder, S. Proc. Nat. Acad. Sci. USA 1986, 83, 1911) Briefly, 200,000 target CD4^+ ATH8 cells were exposed to cell-free HIV-1/IIIB at a dose of 43 (or 1087 for compound 1g) TCID50 (50% tissue culture infectious dose) for 1 h, resuspended in 2 ml of fresh culture media containing interleukin 2, and cultured at 37° C. with or without test compounds in 5% CO2 -containing humidified air. On day 8 in culture, the viable cells were counted by using the dye exclusion method. All compounds, including inactives, were evaluated a minimum of two times in separate experiments. Data reported in Table II are from representative tests. The % protection against the virus was determined by the following formula: 100 times [(the number of viable cells exposed to HIV-1 and cultured in the presence of the compound minus the number of viable cells exposed to HIV-1 and cultured in the absence of compound) divided by (the number of viable cells cultured alone minus the number of viable cells exposed to HIV-1 and cultured in the absence of the compound)]. The % toxicity of a compound on the target cells was determined by the following formula: 100 times [1 minus (the number of total viable cells cultured in the presence of the compound divided by the number of total viable cells cultured alone)]. Calculated percentages equal to or less than zero are expressed as 0%.
^a ATH8 cells were exposed to HIV1/IIIB per cell for 1 hr and
cultured in the presence of various concentrations of each compound. On
day 8, the total viable cells were counted. Orders of numbers in the
column for concentrations correspond to the orders of numbers in other

Which results are given for `CNc1ncnc2c1ncn2[C@@H]1O[C@H](CO)C[C@@H]1F` [Compound 1f, N^6 -Methyl-9-(2'3'-dideoxy-2'-fluoro-β-D-arabinofuranosyl)adenine]?
% Toxicity (CD4^+ ATH8 cells; 11520 min): 11%; % Toxicity (CD4^+ ATH8 cells; ath8 cells, 192 h, 5 µM): 3%; % Toxicity (CD4^+ ATH8 cells; ath8 cells, 192 h, 10 µM): 7%; cytotoxicity at 192 h, 20 µM [1]: 0%; activity against HIV in peripheral blood mononuclear cells (in words) (HIV): the activity of 1f against HIV in peripheral blood mononuclear cells was recently reported; % Protection ([2]; 10 μM, with dCF (2 μM), 11520 min): < 10%; anti-HIV activity in the presence of dCF (in words) ([2]; ATH8 cells, dCF added): protection was either abolished or greatly decreased; also recorded: can have activity abolished; anti-HIV activity (in words) ([2]; ATH8 cells, no additive): that activity was reduced relative to 1a; also recorded: reproducible, albeit unspectacular, activity; also recorded: only moderate anti-HIV activity; inhibition at 10 µM ([2]; 10 μM, no additive (Table IV experiment)): 13%; inhibition at 10 µM ([2]; 10 μM, with added ADA (0.7 U/ml)): 90%

From patent US5459256A, “Lipophilic, aminohydrolase-activated prodrugs” (priority 1991, dated 1995)
